Test results: patent US9491946B2, “Ag loaded silica nanoparticle/nanogel formulation, methods of making, and methods of use” (University of Central Florida Research Foundation, Inc., priority 2011, dated 2016)

Tests used:
B. subtilis, ATCC 9372 [1] = test: bacterial growth inhibition in LB broth using turbidity (Example 2); format: cell-based, Bacillus subtilis; conditions: 24 hours, 37° C., OD 600 nm
Protocol: (§1) Antibacterial properties of C—S CuSiNP and AgSiNG materials were evaluated against a gram positive Bacillus subtilis (B. subtilis, ATCC 9372) and a gram negative Escherichia coli (E. coli, ATCC 35218) organism. For all antibacterial assays, bacterial concentration of 10^5 cells/mL was considered. Copper sulfate with same metallic copper concentration was used as positive controls and silica nanoparticle (without Cu loading) was used as negative control.
(§2) Two sets of different concentrations of C—S CuSiNP were made in LB broth (0.49, 1.2, 2.4, 4.9, 7.2 and 9.8 ppm copper concentration) to a final volume of 10 mL. 250 μL (10^5 cells/mL) of E. coli and B. subtilis were added to set 1 and 2 respectively. Silica nanoparticle was used as negative control and copper sulfate with equivalent amount of copper was used as positive control. […]
(§3) The growth inhibitory effects of C—S CuSiNP and AgSiNG against E. coli and B. subtilis were studied in liquid media (FIG. 2.3 and FIG. 2.4). Bacterial growth with different concentrations of C—S CuSiNP and AgSiNG (0.49 to 9.8 μg mL^−1) was monitored after 24 hours of incubation at 37° C. by measuring the optical density at 600 nm using Teysche800 spectrophotometer. Since the turbidity of silica based material can interfere with the optical density reading, the background measurement was subtracted to calculate the final reading.

S. aureus, ATTC 25923 = format: cell-based, Staphylococcus aureus; conditions: equivalent metallic Ag concentration
Protocol: (§4) Antibacterial properties of AgSiNP200 and AgSiNP50 were evaluated against Gram-positive, Bacillus subtilis (B. subtilis, ATCC 9372) and Staphylococcus aureus (S. aureus, ATTC 25923) and a Gram-negative, Escherichia coli (E. coli, ATCC 35218) organism. […] All the bacteria were obtained from the UCF Department of Molecular Biology and Microbiology Preparatory Laboratories) by Microbiology Department, University of Central Florida, Orlando. All the antibacterial assays were done using Mueller Hinton II medium (Fulka Analytical, USA).
(§5) The bacterial inhibition studies for the AgSiNP200 and AgSiNP50 were done using a method as described by Rastogi et al.^41. The procedure is briefly described below. Different concentrations of AgSiNP200 (metallic silver concentrations of 63.5 μg/ml, 38.1 μg/ml, 19.05 μg/ml, 9.53 μg/ml, 4.77 μg/ml, 2.68 μg/ml, 1.34 μg/ml, 953 ng/ml, 477 ng/ml, 95.3 ng/ml and 47.7 ng/ml) and AgSiNP50 (metallic silver concentrations of 30.24 μg/ml, 20.16 μg/ml, 10.08 μg/ml, 5.04 μg/ml, 2.52 μg/ml, 1.26 μg/ml, 630 ng/ml and 63 ng/ml) were prepared in sterile Mueller Hinton II broth in sterile tubes. To achieve uniform growth for this comparative study, all the tubes contained same amount of broth. We have used 0.85% of sterile saline to make up the volume to 0.9 ml in each tube. In the next step, 0.1 ml of 10^6 CFU/ml of bacteria culture was added to each tube. […]

E. coli, ATCC 35218 [2] = format: cell-based, Escherichia coli; conditions: equivalent metallic Ag concentration
Protocol: as §4, §5

B. subtilis, ATCC 9372 [3] = test: growth inhibition assay by turbidity (OD 600 nm), Mueller Hinton II broth; format: cell-based, Bacillus subtilis; conditions: equivalent metallic Ag concentration
Protocol: as §4, §5

E. coli, ATCC 35218 [4] = test: bacterial growth inhibition in LB broth using turbidity (Example 2); format: cell-based, Escherichia coli; conditions: 24 hours, 37° C., OD 600 nm
Protocol: as §1, §2, §3

## O=[N+]([O-])[O-].[Ag+] [Ag nitrate, silver nitrate]
B. subtilis, ATCC 9372 [1]
  silver concentration at which growth inhibition can be seen: 2.4 ppm
S. aureus, ATTC 25923
  growth inhibition result in words (controls versus AgSiNP nanoformulations): no significant difference in growth inhibition results
E. coli, ATCC 35218 [2]
  growth inhibition result in words (controls versus AgSiNP nanoformulations): no significant difference in growth inhibition results
B. subtilis, ATCC 9372 [3]
  growth inhibition result in words (controls versus AgSiNP nanoformulations): no significant difference in growth inhibition results
E. coli, ATCC 35218 [4]
  silver concentration at which growth inhibition can be seen: 2.4 ppm
